Assay results reported in publication PMC8213057, “Targeting ALK2: An Open Science Approach to Developing Therapeutics for the Treatment of Diffuse Intrinsic Pontine Glioma” (Journal of Medicinal Chemistry, 2020).

Tests used:
CDK16/cyclin Y (PCTAIRE) = CDK16/cyclin Y (PCTAIRE) (Homo sapiens, UniProt Q00536); details: 1 μM; Run 1, Run 2
MLK4 = MLK4 (Homo sapiens, UniProt Q5TCX8); experiment: biochemical; details: read-out: % enzyme activity, 1 μM; Run 1, Run 2
EPHB4 = molecular target: T1, EPHB4 (Homo sapiens, UniProt P54760); details: 1 μM; Run 1, Run 2
T1 sequence (P54760 16-987): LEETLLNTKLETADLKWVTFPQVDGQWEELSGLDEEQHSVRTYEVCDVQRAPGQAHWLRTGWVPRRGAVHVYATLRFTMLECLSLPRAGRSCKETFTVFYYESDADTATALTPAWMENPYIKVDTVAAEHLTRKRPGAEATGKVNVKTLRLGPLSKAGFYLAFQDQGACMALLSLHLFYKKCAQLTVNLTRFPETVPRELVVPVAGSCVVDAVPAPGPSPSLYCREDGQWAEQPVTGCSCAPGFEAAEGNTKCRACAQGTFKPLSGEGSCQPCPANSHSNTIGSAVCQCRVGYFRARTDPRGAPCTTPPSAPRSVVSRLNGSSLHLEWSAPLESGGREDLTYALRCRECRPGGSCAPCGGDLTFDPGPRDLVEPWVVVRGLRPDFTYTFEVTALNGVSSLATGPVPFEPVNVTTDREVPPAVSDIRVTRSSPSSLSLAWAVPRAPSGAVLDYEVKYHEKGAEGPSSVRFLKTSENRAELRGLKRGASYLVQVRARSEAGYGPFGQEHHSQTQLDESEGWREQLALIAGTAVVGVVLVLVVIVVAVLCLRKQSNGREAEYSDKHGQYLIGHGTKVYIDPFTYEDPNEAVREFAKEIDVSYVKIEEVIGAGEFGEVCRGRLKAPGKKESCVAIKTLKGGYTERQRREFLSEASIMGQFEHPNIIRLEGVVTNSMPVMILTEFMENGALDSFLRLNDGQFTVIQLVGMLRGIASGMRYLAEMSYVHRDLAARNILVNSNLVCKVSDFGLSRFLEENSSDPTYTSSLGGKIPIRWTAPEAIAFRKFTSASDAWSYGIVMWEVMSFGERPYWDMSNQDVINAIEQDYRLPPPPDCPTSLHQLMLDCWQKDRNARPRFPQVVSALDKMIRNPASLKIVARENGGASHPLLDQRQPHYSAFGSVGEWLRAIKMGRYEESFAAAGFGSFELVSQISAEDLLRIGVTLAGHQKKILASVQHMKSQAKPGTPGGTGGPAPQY

ERN1/IRE1 = ERN1/IRE1 (Homo sapiens, UniProt O75460); experiment: biochemical; details: read-out: % enzyme activity, 1 μM; Run 1, Run 2
Chain of ERN1/IRE1 (O75460 19-977): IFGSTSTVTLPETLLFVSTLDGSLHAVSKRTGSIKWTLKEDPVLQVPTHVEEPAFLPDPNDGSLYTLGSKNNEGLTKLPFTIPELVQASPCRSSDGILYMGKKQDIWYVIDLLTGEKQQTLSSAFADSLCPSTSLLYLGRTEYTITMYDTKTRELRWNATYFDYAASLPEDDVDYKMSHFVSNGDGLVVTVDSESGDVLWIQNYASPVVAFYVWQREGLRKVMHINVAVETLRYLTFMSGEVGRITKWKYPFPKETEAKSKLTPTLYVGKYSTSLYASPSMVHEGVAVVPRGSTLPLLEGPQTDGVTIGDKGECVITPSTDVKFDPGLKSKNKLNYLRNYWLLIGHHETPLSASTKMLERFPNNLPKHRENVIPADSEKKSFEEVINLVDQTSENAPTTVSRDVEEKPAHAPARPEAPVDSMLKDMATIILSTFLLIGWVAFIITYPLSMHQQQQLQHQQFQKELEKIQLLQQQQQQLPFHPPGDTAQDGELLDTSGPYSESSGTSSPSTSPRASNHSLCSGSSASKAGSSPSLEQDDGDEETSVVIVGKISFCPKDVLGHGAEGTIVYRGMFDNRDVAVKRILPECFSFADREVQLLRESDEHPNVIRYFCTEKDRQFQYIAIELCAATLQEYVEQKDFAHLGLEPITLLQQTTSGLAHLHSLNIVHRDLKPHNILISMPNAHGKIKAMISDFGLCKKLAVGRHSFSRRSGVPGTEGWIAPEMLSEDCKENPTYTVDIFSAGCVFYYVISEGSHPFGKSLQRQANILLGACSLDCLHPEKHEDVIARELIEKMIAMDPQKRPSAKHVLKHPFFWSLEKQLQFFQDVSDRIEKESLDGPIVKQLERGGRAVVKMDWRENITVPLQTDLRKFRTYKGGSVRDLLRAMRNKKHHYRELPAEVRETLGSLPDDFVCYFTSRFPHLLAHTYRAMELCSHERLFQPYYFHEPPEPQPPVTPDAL

STK39/STLK3 = STK39/STLK3 (Homo sapiens, UniProt Q9UEW8); details: 1 μM; Run 1, Run 2
BRSK1 = molecular target: T2, BRSK1 (Homo sapiens, UniProt Q8TDC3); experiment: biochemical; details: read-out: % enzyme activity, 1 μM; Run 1, Run 2
T2 sequence (Q8TDC3 1-778): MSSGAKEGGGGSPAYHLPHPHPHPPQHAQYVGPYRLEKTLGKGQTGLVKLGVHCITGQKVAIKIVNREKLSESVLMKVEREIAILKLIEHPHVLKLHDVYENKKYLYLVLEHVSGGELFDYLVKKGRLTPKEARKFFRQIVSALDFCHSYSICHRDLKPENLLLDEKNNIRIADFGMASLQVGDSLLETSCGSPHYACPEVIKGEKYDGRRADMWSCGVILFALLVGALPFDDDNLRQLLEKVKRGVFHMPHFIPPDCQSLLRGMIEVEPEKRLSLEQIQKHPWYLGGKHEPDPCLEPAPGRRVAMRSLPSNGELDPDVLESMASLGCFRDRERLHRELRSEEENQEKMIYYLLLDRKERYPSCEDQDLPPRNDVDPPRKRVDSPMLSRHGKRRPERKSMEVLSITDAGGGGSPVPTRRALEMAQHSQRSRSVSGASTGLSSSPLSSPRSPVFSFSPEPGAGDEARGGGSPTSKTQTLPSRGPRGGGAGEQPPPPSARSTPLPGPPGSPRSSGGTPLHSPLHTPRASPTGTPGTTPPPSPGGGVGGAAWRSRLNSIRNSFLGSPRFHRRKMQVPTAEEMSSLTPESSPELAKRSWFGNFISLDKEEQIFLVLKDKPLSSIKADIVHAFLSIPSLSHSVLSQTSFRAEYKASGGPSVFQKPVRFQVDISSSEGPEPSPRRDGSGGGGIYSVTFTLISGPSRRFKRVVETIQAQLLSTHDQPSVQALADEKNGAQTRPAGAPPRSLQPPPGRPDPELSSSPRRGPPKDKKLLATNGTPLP

GSK3a = GSK3a (Homo sapiens, UniProt P49840); details: 1 μM; Run 1, Run 2
Chain of GSK3a (P49840 whole entry): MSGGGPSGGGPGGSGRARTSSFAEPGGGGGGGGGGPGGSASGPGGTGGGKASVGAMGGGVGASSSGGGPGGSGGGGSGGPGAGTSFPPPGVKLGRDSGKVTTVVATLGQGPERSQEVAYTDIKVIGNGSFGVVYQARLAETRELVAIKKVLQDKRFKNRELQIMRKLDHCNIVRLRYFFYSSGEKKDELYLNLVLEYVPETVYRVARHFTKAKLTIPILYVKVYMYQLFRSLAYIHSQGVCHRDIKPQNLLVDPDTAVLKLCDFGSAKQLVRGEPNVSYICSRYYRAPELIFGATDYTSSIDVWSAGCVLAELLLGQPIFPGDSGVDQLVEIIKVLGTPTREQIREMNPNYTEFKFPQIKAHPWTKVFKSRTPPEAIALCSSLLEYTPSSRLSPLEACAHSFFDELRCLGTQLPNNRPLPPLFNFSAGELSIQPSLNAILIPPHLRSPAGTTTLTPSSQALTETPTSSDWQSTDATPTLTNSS

TSSK2 = molecular target: T3, TSSK2 (Homo sapiens, UniProt Q96PF2); details: 1 μM; Run 1, Run 2
T3 sequence (Q96PF2 1-358): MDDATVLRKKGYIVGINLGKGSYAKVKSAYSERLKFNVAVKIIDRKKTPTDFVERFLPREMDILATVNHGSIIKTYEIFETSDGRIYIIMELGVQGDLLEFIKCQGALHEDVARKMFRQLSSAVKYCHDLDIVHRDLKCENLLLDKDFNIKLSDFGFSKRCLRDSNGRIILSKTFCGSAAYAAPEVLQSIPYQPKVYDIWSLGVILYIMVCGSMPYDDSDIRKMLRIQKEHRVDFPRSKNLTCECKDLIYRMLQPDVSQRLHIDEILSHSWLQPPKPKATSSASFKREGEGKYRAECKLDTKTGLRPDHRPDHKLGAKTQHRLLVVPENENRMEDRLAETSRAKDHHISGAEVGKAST

Chain of MLK4 (Q5TCX8 whole entry): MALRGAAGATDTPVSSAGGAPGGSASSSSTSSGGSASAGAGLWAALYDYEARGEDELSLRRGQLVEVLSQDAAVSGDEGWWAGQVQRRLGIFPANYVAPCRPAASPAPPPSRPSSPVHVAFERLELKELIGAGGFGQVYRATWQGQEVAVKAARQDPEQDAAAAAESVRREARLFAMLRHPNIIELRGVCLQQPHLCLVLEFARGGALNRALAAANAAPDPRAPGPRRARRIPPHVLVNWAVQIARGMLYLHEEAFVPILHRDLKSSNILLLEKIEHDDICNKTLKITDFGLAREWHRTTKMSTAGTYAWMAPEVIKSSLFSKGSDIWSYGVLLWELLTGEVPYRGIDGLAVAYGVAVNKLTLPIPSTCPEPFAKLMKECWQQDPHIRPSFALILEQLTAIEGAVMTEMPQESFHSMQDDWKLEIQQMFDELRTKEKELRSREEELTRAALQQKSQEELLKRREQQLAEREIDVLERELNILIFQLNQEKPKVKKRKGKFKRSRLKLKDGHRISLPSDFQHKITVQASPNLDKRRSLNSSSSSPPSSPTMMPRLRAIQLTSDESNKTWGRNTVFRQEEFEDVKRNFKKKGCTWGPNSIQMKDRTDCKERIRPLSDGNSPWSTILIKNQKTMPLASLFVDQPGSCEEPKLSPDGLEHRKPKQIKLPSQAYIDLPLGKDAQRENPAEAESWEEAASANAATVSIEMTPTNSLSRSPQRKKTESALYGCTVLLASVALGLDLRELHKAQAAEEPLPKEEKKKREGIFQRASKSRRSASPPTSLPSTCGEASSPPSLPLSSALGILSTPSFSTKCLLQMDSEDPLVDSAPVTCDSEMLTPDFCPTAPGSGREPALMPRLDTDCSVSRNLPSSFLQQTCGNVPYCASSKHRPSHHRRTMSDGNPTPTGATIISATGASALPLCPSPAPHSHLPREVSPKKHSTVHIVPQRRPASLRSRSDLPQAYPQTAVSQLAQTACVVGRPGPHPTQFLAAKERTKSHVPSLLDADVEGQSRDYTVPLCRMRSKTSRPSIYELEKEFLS
Chain of CDK16/cyclin Y (PCTAIRE) (Q00536 whole entry): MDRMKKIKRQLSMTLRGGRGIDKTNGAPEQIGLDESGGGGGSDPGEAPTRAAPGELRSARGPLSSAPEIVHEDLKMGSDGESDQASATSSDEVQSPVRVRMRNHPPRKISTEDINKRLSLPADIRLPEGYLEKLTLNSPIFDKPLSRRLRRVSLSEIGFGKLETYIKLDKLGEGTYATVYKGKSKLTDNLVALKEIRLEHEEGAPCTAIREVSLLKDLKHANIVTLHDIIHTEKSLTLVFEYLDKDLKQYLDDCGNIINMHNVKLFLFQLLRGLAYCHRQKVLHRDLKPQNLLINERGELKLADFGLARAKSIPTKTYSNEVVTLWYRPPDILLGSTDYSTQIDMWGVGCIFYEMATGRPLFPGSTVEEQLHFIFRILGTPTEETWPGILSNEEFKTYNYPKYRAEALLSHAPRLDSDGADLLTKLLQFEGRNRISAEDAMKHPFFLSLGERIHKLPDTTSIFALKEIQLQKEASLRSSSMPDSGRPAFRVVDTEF
Chain of CDK16/cyclin Y (PCTAIRE) (Q8ND76 whole entry partner): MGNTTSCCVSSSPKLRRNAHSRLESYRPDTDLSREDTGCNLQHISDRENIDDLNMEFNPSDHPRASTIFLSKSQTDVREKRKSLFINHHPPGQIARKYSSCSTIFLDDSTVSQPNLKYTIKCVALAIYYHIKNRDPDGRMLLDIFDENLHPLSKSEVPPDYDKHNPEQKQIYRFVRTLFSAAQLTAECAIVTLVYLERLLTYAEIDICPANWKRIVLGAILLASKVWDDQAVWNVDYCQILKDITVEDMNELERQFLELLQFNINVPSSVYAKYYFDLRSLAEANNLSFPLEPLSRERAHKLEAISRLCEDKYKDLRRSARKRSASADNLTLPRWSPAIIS

Question: For `COc1cc(-c2cncc(-c3ccc(N4CCN(C)CC4)cc3)c2C)cc(F)c1C(N)=O` [Compound 26a, 2-Fluoro-6-methoxy-4-(4-methyl-5-(4-(4-methylpiperazin-1-yl)phenyl)pyridin-3-yl)benzamide], which “% enzyme activity” value (CDK16/cyclin Y (PCTAIRE)) is on record?
Answer: The value was 93.35%.

Question: And the remaining activity at 1 µM (MLK4)?
Answer: Its remaining activity at 1 µM is 95.3%.

Question: And the “% enzyme activity” value (EPHB4)?
Answer: Its value is 93.42%.

Question: And the remaining activity at 1 µM (ERN1/IRE1)?
Answer: Its remaining activity at 1 µM is 92.8%.

Question: And the “% enzyme activity” value (STK39/STLK3)?
Answer: Its value is 88.76%.

Question: And the remaining activity at 1 µM (BRSK1)?
Answer: The remaining activity at 1 µM was 84.7%.

Question: And the “% enzyme activity” value (GSK3a)?
Answer: The value was 100.80%.

Question: What about the “% enzyme activity” value (TSSK2) of the same compound?
Answer: Its value is 98.77%.

Question: For `COc1cc(-c2cncc(-c3ccc(N4C[C@@H](C)N(C)[C@@H](C)C4)cc3)c2C)cc(F)c1C(N)=O` [Compound 26c, 2-Fluoro-6-methoxy-4-(4-methyl-5-(4-((3R,5S)-3,4,5-trimethylpiperazin-1-yl)phenyl)pyridin-3-yl)benzamide], which “% enzyme activity” value (CDK16/cyclin Y (PCTAIRE)) is on record?
Answer: The value was 92.26%.

Question: And the remaining activity at 1 µM (MLK4)?
Answer: The remaining activity at 1 µM was 96.2%.

Question: What about the “% enzyme activity” value (EPHB4) of the same compound?
Answer: Its value is 91.07%.

Question: What about the remaining activity at 1 µM (ERN1/IRE1) of the same compound?
Answer: The remaining activity at 1 µM was 91%.

Question: What about the “% enzyme activity” value (STK39/STLK3) of the same compound?
Answer: The value was 93.62%.

Question: And the remaining activity at 1 µM (BRSK1)?
Answer: Its remaining activity at 1 µM is 84%.

Question: And the “% enzyme activity” value (GSK3a)?
Answer: The value was 101.44%.

Question: And the “% enzyme activity” value (TSSK2)?
Answer: Its value is 99.71%.
